Assay results from patent US11142515B2, “Pyrazolyl-ureas as kinase inhibitors” (RESPIVERT LIMITED, priority 2014, dated 2021).

Key:
[1] = molecular target: T1, p38 MAPKα isoform (MAPK14) (Homo sapiens, UniProt Q16539); assay: p38 MAPKα enzyme inhibition (Z-LYTE FRET); assay type: biochemical; conditions: Table 2A; read-out: IC50 Values for Enzyme Inhibition p38 MAPKα
T1 construct: purchased Life Technologies
Procedure, shortened: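 Recombinant human MAPK14 (40 ng/mL stock) was preincubated 2 h at RT with compound (stock dilutions 0.0012-40 μg/mL). The Z-LYTE FRET read-out used a MAPKAP-K2-derived peptide, and protease development for 1 h cleaved only non-phosphorylated peptide. Phosphorylation was calculated from the coumarin/fluorescein emission ratio.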

p38MAPKγ (MAPK12) = molecular target: T2, p38MAPKγ (MAPK12) (Homo sapiens, UniProt P53778); assay: p38 MAPKγ enzyme inhibition (Z-LYTE FRET); assay type: biochemical; conditions: Table 2A; read-out: IC50 Values for Enzyme Inhibition p38 MAPKγ
T2 construct: purchased Life Technologies
T2 sequence (P53778 1-367): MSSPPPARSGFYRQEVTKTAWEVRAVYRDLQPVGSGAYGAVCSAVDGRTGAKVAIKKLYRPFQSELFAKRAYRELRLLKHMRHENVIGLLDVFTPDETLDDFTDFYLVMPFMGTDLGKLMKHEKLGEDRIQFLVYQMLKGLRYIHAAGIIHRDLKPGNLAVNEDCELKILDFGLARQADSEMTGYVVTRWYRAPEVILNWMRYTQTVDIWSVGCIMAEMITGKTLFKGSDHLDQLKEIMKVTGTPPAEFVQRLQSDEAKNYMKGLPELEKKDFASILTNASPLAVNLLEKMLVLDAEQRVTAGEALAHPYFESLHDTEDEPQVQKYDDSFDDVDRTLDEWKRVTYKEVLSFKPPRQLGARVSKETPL
Procedure, shortened: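 Z-LYTE read-out: after 1 h protease development, only non-phosphorylated peptide is cleaved, and the donor/acceptor (coumarin/fluorescein) ratio reports phosphorylation. Beforehand, enzyme and compound (stock concentrations 0.0012–40 μg/mL) were preincubated 2 h at RT, then the kinase reaction ran 1 h at RT with peptide and ATP (8 μM and 400 μM stocks).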

c-Src = molecular target: T3, c-Src (Homo sapiens, UniProt P12931); assay: c-Src enzyme inhibition (Z-LYTE FRET); assay type: biochemical; conditions: Table 2A
T3 construct: purchased Life Technologies
T3 sequence (P12931 whole entry): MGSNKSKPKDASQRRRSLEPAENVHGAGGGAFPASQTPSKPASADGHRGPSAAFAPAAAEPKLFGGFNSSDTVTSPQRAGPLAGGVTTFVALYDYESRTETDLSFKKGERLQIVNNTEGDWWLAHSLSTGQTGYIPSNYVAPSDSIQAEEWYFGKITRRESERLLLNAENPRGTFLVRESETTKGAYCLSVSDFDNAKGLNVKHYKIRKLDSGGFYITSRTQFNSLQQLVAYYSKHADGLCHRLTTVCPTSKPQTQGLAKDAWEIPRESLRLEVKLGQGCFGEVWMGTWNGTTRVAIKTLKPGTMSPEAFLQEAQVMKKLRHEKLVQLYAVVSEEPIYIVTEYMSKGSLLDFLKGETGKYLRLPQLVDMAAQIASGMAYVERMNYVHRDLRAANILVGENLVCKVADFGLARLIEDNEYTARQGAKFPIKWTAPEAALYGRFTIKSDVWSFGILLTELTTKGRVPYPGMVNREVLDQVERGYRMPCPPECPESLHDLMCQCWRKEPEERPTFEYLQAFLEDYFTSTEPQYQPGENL
Method: (§1) The enzyme inhibitory activities of compounds disclosed herein were determined by FRET using synthetic peptides labelled with both donor and acceptor fluorophores (Z-LYTE, Life Technologies, Paisley, UK).
(§2) The relevant enzyme (1000 ng/mL, 1400 ng/mL or 2000 ng/mL respectively, 2.5 μL) was incubated with the test compound (either 40 μg/mL, 12 μg/mL, 4 μg/mL, 1.2 μg/mL, 0.4 μg/mL, 0.12 μg/mL, 0.04 μg/mL, 0.012 μg/mL, 0.004 μg/mL or 0.0012 μg/mL, 2.5 μL each) for 2 h at RT. The FRET peptides (8 μM, 2.5 μL), and appropriate ATP solutions (2.5 μL, 800 μM for c-Src, and 60 μM ATP for HCK and Syk) were then added to the enzyme/compound mixtures and incubated for 1 h at RT. Development reagent (protease, 5 μL) was added for 1 h prior to detection in a fluorescence microplate reader (EnVision, Perkin Elmer).
(§3) In all cases, the site-specific protease cleaves non-phosphorylated peptide only and eliminates the FRET signal. Phosphorylation levels of each reaction were calculated using the ratio of coumarin emission (donor) over fluorescein emission (acceptor), for which low ratios indicate high phosphorylation and high ratios indicate low phosphorylation levels.

Syk = molecular target: T4, Syk (Homo sapiens, UniProt P43405); assay: Syk enzyme inhibition (Z-LYTE FRET); assay type: biochemical; conditions: Table 2A
T4 construct: purchased Life Technologies
Method: as §1, §2, §3

GSK 3α enzyme isoform = molecular target: T5, GSK 3α enzyme isoform (Homo sapiens, UniProt P49840); assay: GSK 3α enzyme inhibition (Z-LYTE FRET); assay type: biochemical; conditions: Table 2A; read-out: IC50 Values for Enzyme Inhibition GSK3α
T5 construct: purchased Life Technologies
T5 sequence (P49840 whole entry, canonical isoform): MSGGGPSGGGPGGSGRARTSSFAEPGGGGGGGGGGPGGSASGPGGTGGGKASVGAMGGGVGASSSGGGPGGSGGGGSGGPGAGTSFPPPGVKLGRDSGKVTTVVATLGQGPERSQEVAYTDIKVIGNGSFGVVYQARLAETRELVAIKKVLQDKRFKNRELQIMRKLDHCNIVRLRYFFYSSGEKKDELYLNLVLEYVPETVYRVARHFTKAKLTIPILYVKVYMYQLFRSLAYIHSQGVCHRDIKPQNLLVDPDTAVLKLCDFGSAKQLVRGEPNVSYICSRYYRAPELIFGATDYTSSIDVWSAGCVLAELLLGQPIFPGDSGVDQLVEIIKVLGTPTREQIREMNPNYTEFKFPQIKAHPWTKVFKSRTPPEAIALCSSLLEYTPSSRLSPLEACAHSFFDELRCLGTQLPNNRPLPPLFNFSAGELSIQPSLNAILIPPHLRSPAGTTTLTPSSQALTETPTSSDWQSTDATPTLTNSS
Method: as §1
The GSK3a protein (500 ng/mL, 2.5 μL) was incubated with the test compound (2.5 μL at either 40 μg/mL, 12 μg/mL, 4 μg/mL, 1.2 μg/mL, 0.4 μg/mL, 0.12 μg/mL, 0.04 μg/mL, 0.012 μg/mL, 0.004 μg/mL or 0.0012 μg/mL) for 2 h at RT. The FRET peptide (8 μM, 2.5 μL), which is a phosphorylation target for GSK3α, and ATP (40 μM, 2.5 μL) was then added to the enzyme/compound mixture and the resulting mixture incubated for 1 h at RT. Development reagent (protease, 5 μL) was added for 1 h prior to detection in a fluorescence microplate reader (EnVision, Perkin Elmer).
as §3

d-U937 cells = assay: Cell viability: MTT assay in differentiated U937 cells; assay type: cell-based, human; conditions: 10 μg/mL
Method: Differentiated U937 cells were pre-incubated with each test compound (final concentration 10 μg/mL in 200 μL media indicated below) under two protocols: the first for 4 h in 5% FCS RPMI1640 media and the second in 10% FCS RPMI1640 media for 24 h. The supernatant was replaced with new media (200 μL) and MTT stock solution (10 μL, 5 mg/mL) was added to each well. After incubation for 1 h the media were removed, DMSO (200 μL) was added to each well and the plates were shaken lightly for 1 h prior to reading the absorbance at 550 nm. The percentage loss of cell viability was calculated for each well relative to vehicle (0.5% DMSO) treatment. Consequently an apparent increase in cell viability for drug treatment relative to vehicle is tabulated as a negative percentage.

T1 sequence (Q16539 whole entry, canonical isoform): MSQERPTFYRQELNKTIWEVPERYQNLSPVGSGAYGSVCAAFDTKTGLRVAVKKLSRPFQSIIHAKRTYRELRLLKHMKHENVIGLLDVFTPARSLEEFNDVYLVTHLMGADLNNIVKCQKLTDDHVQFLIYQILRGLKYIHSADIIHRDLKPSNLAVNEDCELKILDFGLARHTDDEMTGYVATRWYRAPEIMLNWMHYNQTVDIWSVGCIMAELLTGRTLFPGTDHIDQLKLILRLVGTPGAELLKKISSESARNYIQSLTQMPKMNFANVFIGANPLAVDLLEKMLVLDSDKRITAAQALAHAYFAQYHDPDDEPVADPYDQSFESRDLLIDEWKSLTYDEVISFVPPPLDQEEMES

SMILES	IC50 [1]	IC50 (p38MAPKγ (MAPK12))	IC50 (c-Src)	IC50 (Syk)	IC50 (GSK 3α enzyme isoform)	MTT Assay Cell viability at time point indicated in d-U937 Cells, 4 h (d-U937 cells)	MTT Assay Cell viability at time point indicated in d-U937 Cells, 24 h (d-U937 cells)
Cc1ccc(-n2nc(C(C)(C)C)cc2NC(=O)Nc2ccc(OCc3ccnc(Nc4cncc(C5CC5)n4)c3)c3ccccc23)cc1 [Example 15]	96 nM	160 nM	34 nM	> 15.7 µM	3.65 µM	− (−ve and +ve indicate the value is below and above, respectively, the no significant effect threshold defined as 30% inhibition at 10 μg/mL at the time point indicated)	− (−ve and +ve indicate the value is below and above, respectively, the no significant effect threshold defined as 30% inhibition at 10 μg/mL at the time point indicated)
COc1ccc(-n2nc(C(C)(C)C)cc2NC(=O)Nc2ccc(OCc3ccnc(Nc4cnccn4)c3)c3ccccc23)cc1 [Example 38]	14 nM	> 16300 nM	153 nM	> 16.3 µM	5.99 µM	− (−ve and +ve indicate the value is below and above, respectively, the no significant effect threshold defined as 30% inhibition at 10 μg/mL at the time point indicated)	− (−ve and +ve indicate the value is below and above, respectively, the no significant effect threshold defined as 30% inhibition at 10 μg/mL at the time point indicated)
CNC(=O)c1cnc(Nc2cc(COc3ccc(NC(=O)Nc4cc(C(C)(C)C)nn4-c4ccc(C)cc4)c4ccccc34)ccn2)cn1 [Example 7, 5-((4-(((4-(3-(3-(tert-Butyl)-1-(p-tolyl)-1H-pyrazol-5-yl)ureido)naphthalen-1-yl)oxy)methyl)pyridin-2-yl)amino)-N-methylpyrazine-2-carboxamide]	15 nM	151 nM	358 nM	> 15.2 µM	> 15.2 µM	+ (−ve and +ve indicate the value is below and above, respectively, the no significant effect threshold defined as 30% inhibition at 10 μg/mL at the time point indicated)	+ (−ve and +ve indicate the value is below and above, respectively, the no significant effect threshold defined as 30% inhibition at 10 μg/mL at the time point indicated)
Cc1ccc(-n2nc(C(C)(C)C)cc2NC(=O)Nc2ccc(OCc3ccnc(Nc4cnccn4)c3)c3ccccc23)cc1C [Example 51]	14 nM	171 nM	160 nM	> 16.3 µM	> 16.3 µM	− (−ve and +ve indicate the value is below and above, respectively, the no significant effect threshold defined as 30% inhibition at 10 μg/mL at the time point indicated)	− (−ve and +ve indicate the value is below and above, respectively, the no significant effect threshold defined as 30% inhibition at 10 μg/mL at the time point indicated)
COc1ccc(-n2nc(C(C)(C)C)cc2NC(=O)Nc2ccc(OCc3ccnc(Nc4cnccn4)c3)c3ccccc23)cc1C [Example 39]	18 nM	310 nM	82 nM	> 15.9 µM	> 15.9 µM	− (−ve and +ve indicate the value is below and above, respectively, the no significant effect threshold defined as 30% inhibition at 10 μg/mL at the time point indicated)	− (−ve and +ve indicate the value is below and above, respectively, the no significant effect threshold defined as 30% inhibition at 10 μg/mL at the time point indicated)
Cc1ccc(-n2nc(C(C)(C)C)cc2NC(=O)Nc2ccc(OCc3ccnc(Nc4cnc(C(=O)N5CCCC5)cn4)c3)c3ccccc23)cc1 [Example 36]	19 nM	1070 nM	61 nM	> 14.4 µM	> 13.8 µM	− (−ve and +ve indicate the value is below and above, respectively, the no significant effect threshold defined as 30% inhibition at 10 μg/mL at the time point indicated)	− (−ve and +ve indicate the value is below and above, respectively, the no significant effect threshold defined as 30% inhibition at 10 μg/mL at the time point indicated)
Cc1ccc(-n2nc(C(C)(C)C)cc2NC(=O)Nc2ccc(OCc3ccnc(Nc4cnc(C)c(C)n4)c3)c3ccccc23)cc1 [Example 4, 1-(3-(tert-Butyl)-1-(p-tolyl)-1H-pyrazol-5-yl)-3-(4-((2-((5,6-dimethylpyrazin-2-yl)amino)pyridin-4-yl)methoxy)naphthalen-1-yl)urea]	22 nM	441 nM	447 nM	> 16 µM	> 4.96 µM	− (−ve and +ve indicate the value is below and above, respectively, the no significant effect threshold defined as 30% inhibition at 10 μg/mL at the time point indicated)	− (−ve and +ve indicate the value is below and above, respectively, the no significant effect threshold defined as 30% inhibition at 10 μg/mL at the time point indicated)
CC(C)(C)c1cc(NC(=O)Nc2ccc(OCc3ccnc(Nc4cncc(C5CC5)n4)c3)c3ccccc23)n(-c2ccc(O)cc2)n1 [Example 34]	13 nM	274 nM	18 nM	4.26 µM	1.2 µM	− (−ve and +ve indicate the value is below and above, respectively, the no significant effect threshold defined as 30% inhibition at 10 μg/mL at the time point indicated)	− (−ve and +ve indicate the value is below and above, respectively, the no significant effect threshold defined as 30% inhibition at 10 μg/mL at the time point indicated)
Cc1ccc(-n2nc(C(C)(C)C)cc2NC(=O)Nc2ccc(OCc3ccnc(Nc4cnc(CO)cn4)c3)c3ccccc23)cc1 [Example 10, 1-(3-(tert-Butyl)-1-(p-tolyl)-1H-pyrazol-5-yl)-3-(4-((2-((5-(hydroxymethyl)pyrazin-2-yl)amino)pyridin-4-yl)methoxy)naphthalen-1-yl)urea]	8 nM	31 nM	47 nM	> 15.9 µM	> 15.9 µM	− (−ve and +ve indicate the value is below and above, respectively, the no significant effect threshold defined as 30% inhibition at 10 μg/mL at the time point indicated)	− (−ve and +ve indicate the value is below and above, respectively, the no significant effect threshold defined as 30% inhibition at 10 μg/mL at the time point indicated)
